# Data: US20230142274A1 (SIMCERE PHARMACEUTICAL CO., LTD., priority 2020, published 2023)
# Read-outs that look alike come from different tables or passages of the source.
# How the values were obtained:
# CD-1 mouse plasma = assay: Plasma protein binding rate assay (equilibrium dialysis); assay type: in vitro ADME; settings: compound 1 μM, equilibrium dialysis 6 hours at 37° C.
# Description: 1. CD-1 mouse plasma (BioIVT)
# 1. Formulation of a buffer solution containing 100 mM sodium phosphate and 150 mM NaCl: An alkaline solution containing Na2HPO4 (14.2 g/L) and NaCl (8.77 g/L) was formulated with ultrapure water. An acidic solution containing NaH2PO4 (12.0 g/L) and NaCl (8.77 g/L) was formulated with ultrapure water. The alkaline solution was titrated with the acidic solution until the pH value was 7.4, thus formulating the buffer solution containing 100 mM sodium phosphate and 150 mM NaCl.
# 2. Preparation of dialysis membrane: The dialysis membrane was immersed in ultrapure water for 60 minutes to separate the membrane into two pieces, then immersed in 20% ethanol for 20 minutes, and finally immersed in a buffer for dialysis for 20 minutes.
# 3. Preparation of plasma: Frozen plasma was thawed rapidly at room temperature. Thereafter, the plasma was centrifuged at 3220 g for 10 minutes at 4° C. to remove clots, and the supernatant was collected into a new centrifuge tube. The pH values of plasma were measured and recorded. The plasma with a pH value of 7 to 8 was used.
# 4. Formulation of compound-containing plasma samples: A 10 mM stock solution of the compound of the present disclosure or the positive control compound was diluted with DMSO to obtain a 200 μM working solution. 3 μl of the 200 μM working solution of the compound was added into 597 μl of mouse plasma to obtain a plasma sample with a final concentration of 1 μM.
# 5. Steps of equilibrium dialysis: The dialysis device was assembled according to the operating instructions. 120 μL of a plasma sample containing 1 μM compound was added on one side of the dialysis membrane, and an equal volume of dialysate (phosphate buffer solution) was added on the other side. Duplicate samples were set in the experiment. The dialysis plate was sealed and placed in an incubation device where the samples were incubated at 37° C. in an atmosphere containing 5% CO2 for 6 hours with a rotational speed of about 100 rpm. After the incubation was complete, the sealing membrane was removed. 50 μl of samples were respectively aspirated from the buffer solution side and the plasma side of each well and transferred into different wells of a new plate. 50 μl of blank plasma was added into the sample obtained from the phosphate buffer solution side, and an equal volume of blank phosphate buffer solution was added into the plasma sample, followed by the addition of 300 μl of acetonitrile containing the internal standard to precipitate protein. The sample was vortexed for 5 minutes and centrifuged at 3220 g for 30 minutes at 4° C. 100 μl of the supernatant was aspirated and transferred to the sample plate, mixed well with 100 μL of ultrapure water, and used for LC-MS/MS analysis.
# The peak areas of the compounds on the buffer solution side and the plasma side were determined. The formula for calculating the plasma protein binding rate of the compound was as follows:
# % Free rate=(the ratio of the peak area of the compound to the peak area of the internal standard on the buffer solution side/the ratio of the peak area of the compound to the peak area of the internal standard on the plasma side)×100
# % Binding rate=100−% free rate
# [1] = Pharmacokinetic experiment in mouse; assay type: in vivo; settings: female CB17-SCID mice; for half-life: mouse, plasma, read-out: Drug Elimination Half-life (converted)
# Excerpt: CB17-SCID mice were purchased from Beijing Vital River Laboratory Animal Technology Co., Ltd.
# DMSO, HP-β-CD (hydroxypropyl-β-cyclodextrin), PEG400 (polyethylene glycol 400), and Vitamin E TPGS (D-α-tocopherol polyethylene glycol 1000 succinate) were purchased from Sigma.
# Six female CB17-SCID mice (20 g to 30 g, aged 4 to 6 weeks) were divided randomly into two groups, with 3 mice in each group. In Group 1, the compound in a vehicle of an aqueous solution containing 5% dimethyl sulfoxide and 95% hydroxypropyl-β-cyclodextrin (10%, w/v) was administered by intravenous injection via tail vein. In Group 2, a corresponding dose of the compound in a vehicle of an aqueous solution containing 30% polyethylene glycol 400 and 70% D-α-tocopherol polyethylene glycol 1000 succinate (10%, w/v) was orally administered. The animals were fed normally with food and water before experiment. The mice in each group underwent intravenous blood collection before administration and at 0.083 h (intravenous injection group only), 0.25 h, 0.5 h, 1 h, 2 h, 4 h, 6 h, 8 h, and 24 h after administration. The collected whole blood samples were placed in K2EDTA anticoagulation tubes and centrifuged for 5 min (4000 rpm, 4° C.) to collect the plasma for testing.
# 10 μL of the mouse plasma sample was taken, and 150 μL of acetonitrile solvent (containing the internal standard compound) was added to precipitate protein. After the resultant was vortexed for 0.5 min and centrifuged (4700 rpm, 4° C.) for 15 min, the supernatant was subjected to 2-fold dilution with water containing 0.05% (v/v) FA and was then subjected to quantitative measurement in LC-MS/MS system (AB Sciex Triple Quad 6500+). A calibration standard curve was prepared in CB17-SCID mouse plasma along with quality control samples to determine the plasma concentration. As for a 10× diluted sample, 2 μL of sample was taken and 18 μL of blank plasma was added. After being vortexed for 0.5 min, the mixture was added with 300 μL of acetonitrile solvent (containing the internal standard compound) so as to precipitate protein. The rest of the processing steps were the same as those for the undiluted samples.
structure (smiles),measurement,setting,value
"CC(C)OC(=O)N[C@H]1CC[C@H](c2ncc(-c3ccc(Nc4cc5ccccn5n4)cc3S(=O)(=O)C3CC3)s2)CC1 [Example 57, isopropyl trans-(4-(5-(2-(cyclopropylsulfonyl)-4-(pyrazolo[1,5-a]pyridin-2-ylamino)phenyl)thiazol-2-yl)cyclohexyl)carbamate]",% Binding Rate,CD-1 mouse plasma,99.9%^
"CC(C)OC(=O)Nc1ccc(-c2cnc(C3CCC(NC(=O)OC(C)C)CC3)s2)c(S(=N)(=O)C(C)C)c1 (stereo not drawn) [Example 3, isopropyl trans-N-[4-[2-[4-(isopropoxycarbonylamino)cyclohexyl]thiazol-5-yl]-3-(isopropylsulfonimidoyl)phenyl]carbamate]",Drug Exposure,[1]; oral dose 80 mg/kg,271.377 µg·h/mL
same,Max. Drug Conc.,[1]; oral dose 80 mg/kg,15438 ng/mL
same,Peak Time of Drug Conc.,[1]; oral dose 80 mg/kg,2.8 h
same,half-life,[1]; oral dose 80 mg/kg,1920 min
same,% Binding Rate,CD-1 mouse plasma,97%
"Cc1cc(Nc2ccc(-c3cnc(C4CCC(NC(=O)OC(C)C)CC4)s3)c(S(=N)(=O)C3CC3)c2)n[nH]1 (stereo not drawn) [Example 50, isopropyl trans-N-[4-[5-[2-(cyclopropylsulfonimidoyl)-4-]((5-methyl-1H-pyrazol-3-yl)amino]phenyl]thiazol-2-yl]cyclohexyl]carbamate]",Drug Exposure,[1]; oral dose 25 mg/kg,18.187 µg·h/mL
same,Max. Drug Conc.,[1]; oral dose 25 mg/kg,4076 ng/mL
same,Peak Time of Drug Conc.,[1]; oral dose 25 mg/kg,1 h
same,half-life,[1]; oral dose 25 mg/kg,282 min
same,% Binding Rate,CD-1 mouse plasma,96%
"Cc1cc(Nc2ccc(-c3cnc([C@H]4CC[C@H](NC(=O)OC(C)C)CC4)s3)c(P3(=O)CCC3)c2)n[nH]1 [Example 103, isopropyl trans-(4-(5-(4-((5-methyl-1H-pyrazol-3-yl)amino)-2-(1-oxophosphetan-1-yl)phenyl)thiazol-2-yl)cyclohexyl)carbamate]",% Binding Rate,CD-1 mouse plasma,98%
"Cc1cc(Nc2ccc(-c3cnc([C@H]4CC[C@H](NC(=O)OC(C)C)CC4)s3)c(S(=N)(=O)C3CC3)c2)n(C)n1 (stereo partly drawn) [Example 98, isopropyl trans-(4-(5-(2-(cyclopropanesulfonimidoyl)-4-((1,3-dimethyl-1H-pyrazol-5-yl)amino)phenyl)thiazol-2-yl)cyclohexyl)carbamate]",% Binding Rate,CD-1 mouse plasma,99%
CC(C)OC(=O)N[C@H]1CC[C@H](c2ncc(-c3ccc(Nc4cn(C)nn4)cc3S(=N)(=O)C3CC3)s2)CC1 (stereo partly drawn) [Example 54],Drug Exposure,[1]; oral dose 25 mg/kg,47.683 µg·h/mL
same,Max. Drug Conc.,[1]; oral dose 25 mg/kg,6698 ng/mL
same,Peak Time of Drug Conc.,[1]; oral dose 25 mg/kg,1 h
same,half-life,[1]; oral dose 25 mg/kg,186 min
same,% Binding Rate,CD-1 mouse plasma,95%
"CC(C)OC(=O)N[C@H]1CC[C@H](c2ncc(-c3ccc(Nc4n[nH]c5ccccc45)cc3S(=O)(=O)C3CC3)s2)CC1 [Example 56, isopropyl trans-(4-(5-(4-((1H-indazol-3-yl)amino)-2-(cyclopropylsulfonyl)phenyl)thiazol-2-yl)cyclohexyl)carbamate]",% Binding Rate,CD-1 mouse plasma,97%
"CC(C)OC(=O)Nc1ccc(-c2cnc([C@H]3CC[C@H](NC(=O)OC(C)C)CC3)s2)c(P(C)(C)=O)c1 [Example 1, isopropyl trans-N-[3-dimethylphosphoryl-4-[2-[4-(isopropoxycarbonylamino)cyclohexyl]thiazol-5-yl]phenyl]carbamate]",Drug Exposure,[1]; oral dose 80 mg/kg,211.819 µg·h/mL
same,Max. Drug Conc.,[1]; oral dose 80 mg/kg,14640 ng/mL
same,Peak Time of Drug Conc.,[1]; oral dose 80 mg/kg,2.3 h
same,half-life,[1]; oral dose 80 mg/kg,222 min
same,% Binding Rate,CD-1 mouse plasma,94%
"CC(C)OC(=O)Nc1ccc(-c2cnc([C@H]3CC[C@H](NC(=O)OC(C)C)CC3)s2)c(S(=O)(=O)C(C)C)c1 [Example 2, isopropyl trans-N-[4-[2-[4-(isopropoxycarbonylamino)cyclohexyl]thiazol-5-yl]-3-isopropylsulfonyl-phenyl]carbamate]",% Binding Rate,CD-1 mouse plasma,99.4%^
"CC(C)OC(=O)Nc1ccc(-c2cnc([C@H]3CC[C@H](NC(=O)OC(C)C)CC3)s2)c(S(=N)(=O)C2CC2)c1 (stereo partly drawn) [Example 68, isopropyl trans-N-[3-(cyclopropylsulfonimidoyl)-4-[2-[4-(isopropoxycarbonylamino)cyclohexyl]thiazol-5-yl]phenyl]carbamate]",Drug Exposure,[1]; oral dose 25 mg/kg,156.699 µg·h/mL
same,Max. Drug Conc.,[1]; oral dose 25 mg/kg,14798 ng/mL
same,Peak Time of Drug Conc.,[1]; oral dose 25 mg/kg,1.3 h
same,half-life,[1]; oral dose 25 mg/kg,300 min
same,% Binding Rate,CD-1 mouse plasma,97%
"CC(C)OC(=O)N[C@H]1CC[C@H](c2ncc(-c3ccc(NC(=O)NCc4ccccc4)cc3S(=N)(=O)C3CC3)s2)CC1 (stereo partly drawn) [Example 65, isopropyl trans-(4-(5-(4-(3-benzylureido)-2-(cyclopropanesulfonimidoyl)phenyl)thiazol-2-yl)cyclohexyl)carbamate]",% Binding Rate,CD-1 mouse plasma,97%
"CC(C)OC(=O)Nc1ccc(-c2cnc([C@H]3CC[C@H](NC(=O)OC(C)C)CC3)s2)c(S(=O)(=O)C2CC2)c1 [Example 33, isopropyl trans-N-[3-cyclopropylsulfonyl-4-[2-[4-(isopropoxycarbonylamino)cyclohexyl]thiazol-5-yl]phenyl]carbamate]",% Binding Rate,CD-1 mouse plasma,99%
"Cc1cc(Nc2ccc(-c3cnc([C@H]4CC[C@H](NC(=O)OC(C)C)CC4)s3)c(S(=O)(=O)C3CC3)c2)nn1C [Example 49, isopropyl trans-(4-(5-(2-(cyclopropylsulfonyl)-4-((1,5-dimethyl-1H-pyrazol-3-yl)amino)phenyl)thiazol-2-yl)cyclohexyl)carbamate]",% Binding Rate,CD-1 mouse plasma,97%
"Cc1cc(Nc2ccc(-c3cnc([C@H]4CC[C@H](NC(=O)OC(C)C)CC4)s3)c(S(=O)(=O)C3COC3)c2)n[nH]1 [Example 92, isopropyl trans-N-[4-[5-[4-[(5-methyl-1H-pyrazol-3-yl)amino]-2-(oxetan-3-ylsulfonyl)phenyl]thiazol-2-yl]cyclohexyl]carbamate]",Drug Exposure,[1]; oral dose 25 mg/kg,40.08 µg·h/mL
same,Max. Drug Conc.,[1]; oral dose 25 mg/kg,8038 ng/mL
same,Peak Time of Drug Conc.,[1]; oral dose 25 mg/kg,1 h
same,half-life,[1]; oral dose 25 mg/kg,216 min
same,% Binding Rate,CD-1 mouse plasma,98.8%^
"Cc1cc(Nc2ccc(-c3cnc([C@H]4CC[C@H](NC(=O)OC(C)C)CC4)s3)c(P3(=O)CCCC3)c2)n[nH]1 [Example 47, isopropyl trans-N-[4-[5-[4-[(5-methyl-1H-pyrazol-3-yl)amino]-2-(1-oxidophospholan-1-yl)phenyl]thiazol-2-yl]cyclohexyl]carbamate]",% Binding Rate,CD-1 mouse plasma,99%
COc1ccc(-c2ccc(-c3cnc([C@H]4CC[C@H](NC(=O)OC(C)C)CC4)s3)c([S@@](=N)(=O)C3CC3)c2)cn1 (stereo in doubt) [Example 94],Drug Elimination Half-life,[1]; oral dose 25 mg/kg,3.5 h
same,Drug Exposure,[1]; oral dose 25 mg/kg,125.779 µg·h/mL
same,Max. Drug Conc.,[1]; oral dose 25 mg/kg,19257 ng/mL
same,Peak Time of Drug Conc.,[1]; oral dose 25 mg/kg,1.3 h
same,% Binding Rate,CD-1 mouse plasma,99.8%^
"CC(C)OC(=O)Nc1ccc(-c2cnc(C3CCC(NC(=O)OC(C)C)CC3)s2)c([S+]([O-])C(C)C)c1 (stereo not drawn) [Example 32, isopropyl trans-N-[4-[2-[4-(isopropoxycarbonylamino)cyclohexyl]thiazol-5-yl]-3-isopropylsulfinyl-phenyl]carbamate]",% Binding Rate,CD-1 mouse plasma,99%
